Test results taken from patent publication US8710064B2, “2-aryl-4-quinazolinones and their pharmaceutical compositions” (China Medical University, priority 2011, dated 2014).

Assays:
[1] = system: U87 glioma cells; test: trypan blue exclusion cell death assay, U87 glioma cells; format: cell-based, human; settings: 60 nM, at the 48th hour, p<0.05 versus control
Protocol: (§1) Cell viability was also determined by trypan-blue exclusion assay. Cells were seeded in 6-well plates (2×10^4/well) for trypan blue exclusion assay, and incubated for 24 hours at 37° C. Culture medium containing test compound or DMSO (0.006%) was added to each well, and cells were incubated at 37° C. At indicated time points (0, 24, 48, 72 and 96 hr), cells were suspended with 0.05% trypsin-EDTA, and stained with trypan-blue dye (0.4%) (Sigma). The cell viability was evaluated by the percentage of death relative to the total cell, and cell growth curve was determined by number of live cells relative to the total number of cells.
To investigate the glioma cell death induced by MJ-66, cell viability was assessed by trypan blue exclusion assay. C6 and U87 glioma cells treated with MJ-66 (30, 60, 90 nM) or DMSO (0.009%) for 0, 24, 48, 72 and 96 hours (hr) were observed under bright field microscope (FIG. 4A). The percentages of cell death and cell growth curve were determined by trypan blue assay followed by cell counting (mean±SEM, n=3). Relative to total cell number, trypan blue positive cells were defined as dead cells.

[2] = system: H460; test: trypan blue exclusion assay, H460 cells; format: cell-based; settings: NCI-H460, H460 human non-small cell lung cancer
Protocol: (§2) Hep3B (human hepatocellular carcinoma) and H460 (lung non-small carcinoma) cells were grown in monolayer culture in Dulbecco's modified Eagle's medium (DMEM) (Life Technologies, Rockville, Md., USA) containing 5% fetal bovine serum (HyClone, Logan, Utah, USA), 100 U/ml penicillin and 100 μg/ml streptomycin (Gibco BRL, Rockville, Md., USA) and 2 mM glutamine (Merck, Darmstadt, Germany).
as §1
(§3) The anti-proliferation effects of Compounds 17-31 on M21, CH27, H460, Hep3B and HSC-3 cells were evaluated by the trypan blue exclusion assay.

[3] = system: C6 rat glioma; test: MTS cell viability assay, C6 glioma cells; format: cell-based; settings: 48 hours, mean±SEM, n=3
Protocol: The human glioma cell lines U87, U251, T98G, U373, and rat glioma cell line RT2 provided by Dr. Michael Hsiao (Genomics Research Center, Academia Sinica, Taiwan) were cultured in Dulbecco's Modified Eagle medium (DMEM) (Caisson) supplemented with 10% fetal bovine serum (FBS) (Sigma-Aldrich), 2 mM L-glutamine (Caisson), 100 U/ml penicillin, and 100 μg/ml streptomycin (Caisson). The rat glioma C6 cell line provided by Dr. Shun-Fen Tzeng (National Cheng Kung University, Taiwan) was cultured in DMEM/F12 (Caisson) supplemented with 10% fetal bovine serum, 2 mM L-glutamine, 100 U/ml penicillin, and 100 μg/ml streptomycin. The human normal glia cell line SVGP12, kindly provided by Dr. Michael Hsiao, was cultured in Minimum Essential Medium (MEM) (Invitrogen) supplemented with 10% fetal bovine serum, 2 mM L-glutamine, 100 U/ml penicillin, and […]. Primary glia cells were prepared by surgery. Cerebral cortices without meninges were dissected from postnatal (P0-P2) Sprague-Dawley (SD, NCKU Laboratory Animal Center) rats and dissociated in 0.05% trypsin-EDTA (Biowest) at 37° C. for 10 min. Culture medium was added and pipetted for several times, and supernatant was removed after a centrifugation at 1,000 rpm for 5 minutes. […]
Cell proliferation was determined by MTS (tetrazolium compound, 3-(4,5-dimethylthiazol-2-yl)-5-(3-carboxymethoxyphenyl)-2-(4-sulfophenyl)-2H-tetrazolium) assay (Promega). […] The absorbance of soluble formazan was measured at 490 nm with microplate reader (Molecular device). The cell viability was determined by the percentage of the absorption relative to untreated control. […]
To investigate the effect of 2-aryl-4-quinazolinone in accordance with the present invention on cell proliferation, glioma cell lines were treated with MJ-66, MJ-68, or MJ-78. […] The cell viability of each group was analyzed by MTS assay (mean±SEM, n=3).

[4] = system: C6 glioma cells; test: G1 synchronized by Ara-C, flow cytometry; format: cell-based, rat; settings: 60 nM MJ-66 after 41.6 nM Ara-C 12 hours; at 12th and 24th hours
Protocol: At indicated time points (0, 6, 12 and 24 hr), >10^6 cells were collected and fixed in 70% ethanol over 1 hour at −20° C. After staining with PI as described, DNA content of ten thousand cells was analyzed by flow cytometry.
To investigate the influence of MJ-66 on normal glia such as human glia cell line SVGP12 and rat primary glia cells, cells were treated with different concentrations of MJ-66 in vitro (0.00625, 0.0125, 0.025, 0.05, 0.1 and 1 μM) for different time durations (0, 6, 12 and 24 hours) and the cell viability was assessed by MTS assay. Cells alone or treated with DMSO were used as control. […] However, most glia cells in animals are static and their proliferation rate is almost silent. Therefore, cytosine arabinoside (Ara-C), a DNA synthesis inhibitor, was further used to inhibit glioma cell proliferation and glioma cells were then treated with MJ-66 or DMSO as described in “General materials and methods”. Specifically, after C6 glioma cells were treated with 41.6 nM Ara-C for 12 hours, and then treated with solvent (DMSO) or 60 nM MJ-66 for 0, 6, 12 and 24 hours, the cell cycle distributions and DNA content of the cells were monitored by flow cytometry with propidium iodide staining C6 glioma cells treated with 41.6 nM Ara-C for 12 hours (12 hr) were detected by flow cytometry with propidium iodide staining as control.

[5] = system: Hep3B; test: trypan blue exclusion assay, Hep3B cells; format: cell-based; settings: Hep3B human hepatoma
Protocol: as §2, §1, §3

SMILES: O=c1[nH]c(-c2cccc3ccccc23)nc2ccc(N3CCCC3)cc12 [Compound 23, 6-(Pyrrolidin-1-yl)-2-(naphthalen-1-yl)quinazolin-4-one]
- percentage of dead cells, U87 [1]: significantly induced
- IC50 [2]: 75 nM
- IC50 [3]: 56 ± 9 nM
- cell death of G1 arrest (Ara-C-treated) glioma cells [4]: not induced cell death
- IC50 [5]: 1350 nM
